US9150592B2, “Heterocyclic nuclear hormone receptor modulators” (AbbVie Inc., priority 2012, dated 2015)
Each block holds one compound with its values, some of them ahead of it.

How the values were obtained:
[1] = molecular target: T1, Glucocorticoid Receptor (GR) (Homo sapiens, UniProt P04150); test: GR Fluorescence Polarization Assay (PolarScreen Glucocorticoid Receptor Competitor Assay, Red); conditions: IC50 class ranges, read-out: GR binding
T1 construct: purchased Invitrogen P2893
T1 sequence (P04150 1-777): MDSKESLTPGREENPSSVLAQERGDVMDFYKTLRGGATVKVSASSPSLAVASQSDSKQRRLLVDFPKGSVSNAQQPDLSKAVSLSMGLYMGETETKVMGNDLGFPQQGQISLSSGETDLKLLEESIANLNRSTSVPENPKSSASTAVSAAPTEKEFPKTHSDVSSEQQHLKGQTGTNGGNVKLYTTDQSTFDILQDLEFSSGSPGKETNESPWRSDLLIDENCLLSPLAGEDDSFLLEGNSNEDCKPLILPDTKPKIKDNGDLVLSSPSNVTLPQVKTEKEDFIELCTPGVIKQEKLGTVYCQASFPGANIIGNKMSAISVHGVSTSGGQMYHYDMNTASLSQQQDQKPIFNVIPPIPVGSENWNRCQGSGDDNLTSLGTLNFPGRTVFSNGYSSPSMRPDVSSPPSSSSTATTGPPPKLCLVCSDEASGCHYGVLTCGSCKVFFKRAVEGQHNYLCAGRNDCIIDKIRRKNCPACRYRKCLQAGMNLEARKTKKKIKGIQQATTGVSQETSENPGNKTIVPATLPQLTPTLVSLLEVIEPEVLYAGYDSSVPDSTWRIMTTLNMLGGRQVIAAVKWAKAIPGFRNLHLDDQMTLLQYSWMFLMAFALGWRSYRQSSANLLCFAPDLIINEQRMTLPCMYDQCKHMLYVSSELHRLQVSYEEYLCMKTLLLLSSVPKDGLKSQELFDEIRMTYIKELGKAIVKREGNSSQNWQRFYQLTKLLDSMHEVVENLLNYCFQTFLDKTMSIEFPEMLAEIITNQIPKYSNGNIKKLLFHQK
Procedure: GR Fluorescence Polarization Assay
Fluorescence polarization assays were carried out using the PolarScreen™ Glucocorticoid Receptor Competitor Assay, Red from Invitrogen (P2893). The assay buffer was prepared according to the manufacturer's protocol and used to dilute the fluorescent glucocorticoid and GR. Compounds were prepared and serial diluted 1:4 in DMSO. Compound, fluorescent glucocorticoid and GR were added in a final volume of 20 μL and incubated overnight at 4° C. Fluorescent polarization was measured on the PerkinElmer Envision®.

[2] = test system: IL-6 in A549 cells stimulated with IL-1β; test: A549 Cell Assay to Measure Inflammation Markers (inhibition of IL-1β-induced IL-6); format: cell-based; conditions: intrinsic activity, Emax class ranges; for Emax: Homo sapiens, A549, A549 Cell Assay to Measure Inflammation Markers; for A549 Emax: A549 Cell Assay to Measure Inflammation Markers
Procedure: A549 Cell Assay to Measure Inflammation Markers
Further dilution (1:250) of compound was made into assay medium and 50 μL/well diluted drug or DMSO/media control was applied to cells. After a 1 h pre-incubation in a temperature, CO2, and humidity controlled incubator, set to 37° C., 50 μL/well of 4 ng/mL IL-1β diluted in assay media, was applied to cultures. Assay plates, with a final volume of 200 μL/well and final concentrations of 0.1% DMSO and 1 ng/mL IL-1β were returned to incubator for a […] incubation period. Next, plates were spun at 183 g (1000 rpm in Beckman/Coulter Allegra 6KR centrifuge) for 10 min. Cell-free supernatant (150 μL/well) was collected and IL-6 was measured by MSD kit, following protocol of manufacturer, and using MSD SECTOR Imager 6000 instrument. […] Results were represented as IC50 and Emax values.

SMILES: Cn1nc(-c2ccccn2)c2c1NCC[S+]([O-])C2c1ccc(Cl)cc1Cl (stereo not drawn) [L.2]
IC50 [1]: 1000 to 10000 nM
Emax [2]: < 50%

SMILES: Cn1nc(-c2ccccn2)c2c1NCCSC2c1ccc(Cl)cc1C1CC1 (stereo not drawn) [D.38]
IC50 [1]: < 100 nM
Emax [2]: > 50%

SMILES: Cc1cc(Br)ccc1C1SCCNc2onc(-c3ccccn3)c21 (stereo not drawn) [D.44, 4-(4-bromo-2-methyl-phenyl)-3-(2-pyridyl)-4,6,7,8-tetrahydroisoxazolo-[5,4-e][1,4]thiazepine]
IC50 [1]: < 100 nM
Emax [2]: < 50%

SMILES: Cc1cc(C#N)ccc1C1SCCNc2c1c(-c1ccccn1)nn2C (single isomer, unassigned) [M.20, 3-methyl-4-(1-methyl-3-(pyridin-2-yl)-4,6,7,8-tetrahydro-1H-pyrazolo[3,4-e][1,4]thiazepin-4-yl)benzonitrile]
IC50 [1]: < 100 nM
Emax [2]: > 70%

SMILES: COC(=O)c1cc(C2SCCNc3c2c(-c2ccccn2)nn3C)c(C)s1 (stereo not drawn) [E.5]
IC50 [1]: 1000 to 10000 nM
Emax [2]: < 50%

SMILES: Cc1ccc(C)c(C2SCCNc3c2c(-c2ccccn2)nn3C)c1 (stereo not drawn) [D.20]
IC50 [1]: < 100 nM
Emax [2]: < 50%

SMILES: Cc1ncccc1NC(=O)c1ccc(C2SCCNc3c2c(-c2ccccn2)nn3C)cc1 (stereo not drawn) [F.3]
IC50 [1]: 1000 to 10000 nM
Emax [2]: < 50%

SMILES: CCn1nc(-c2ccccn2)c2c1N[C@H](C)CS[C@H]2c1ccc(C#CC(C)(C)O)cc1C (single isomer, unassigned) [M.31, 4-(4-(1-ethyl-7-methyl-3-(pyridin-2-yl)-4,6,7,8-tetrahydro-1H-pyrazolo[3,4-e][1,4]thiazepin-4-yl)-3-methylphenyl)-2-methylbut-3-yn-2-ol]
IC50 [1]: < 100 nM
Emax [2]: > 70%

SMILES: CCn1nc(-c2ccncn2)c2c1NCCSC2c1ccc(Br)cc1C (stereo not drawn) [D.108]
IC50 [1]: < 100 nM
Emax [2]: > 50%

IC50 [1]: > 10000 nM
SMILES: Cc1nn(C)c2c1C(c1ccc(Cl)cc1Cl)SC(C)(C)CN2CC(O)C(F)(F)F (stereo not drawn)
Emax [2]: < 50%

IC50 [1]: 1000 to 10000 nM
SMILES: Cc1cc(Cl)ccc1[C@H]1S[C@H](CCO)CNc2c1c(-c1ccccn1)nn2C (single isomer, unassigned) [M.11, 2-(4-(4-chloro-2-methylphenyl)-1-methyl-3-(pyridin-2-yl)-4,6,7,8-tetrahydro-1H-pyrazolo[3,4-e][1,4]thiazepin-6-yl)ethanol]
Emax [2]: < 50%

SMILES: CCn1nc(-c2ccccn2)c2c1N[C@H](C)CS[C@H]2c1ccc(C#CCO)cc1C (single isomer, unassigned) [M.27, 3-(4-(1-ethyl-7-methyl-3-(pyridin-2-yl)-4,6,7,8-tetrahydro-1H-pyrazolo[3,4-e][1,4]thiazepin-4-yl)-3-methylphenyl)prop-2-yn-1-ol]
IC50 [1]: < 100 nM
Emax [2]: > 60%

SMILES: Cc1cccc(C2SCCNc3c2c(-c2ccccn2)nn3C)c1C (stereo not drawn) [D.33]
IC50 [1]: 100 to 1000 nM
Emax [2]: < 50%

IC50 [1]: 100 to 1000 nM
SMILES: Cn1nc(C2CC2)c2c1NCC(C)(C)SC2c1ccc(Cl)cc1C(F)(F)F (stereo not drawn) [D.48]
Emax [2]: < 50%

SMILES: Cc1cc(Cl)ccc1C1SCCNc2c1c(O)nn2C (stereo not drawn) [D.73, 4-(4-chloro-2-methyl-phenyl)-1-methyl-4,6,7,8-tetrahydropyrazolo[3,4-e][1,4]thiazepin-3-ol]
IC50 [1]: > 10000 nM
Emax [2]: < 50%

IC50 [1]: < 100 nM
SMILES: Cc1cc(Cl)ccc1C1SC(C)(C)CNc2c1c(C)nn2C (stereo not drawn) [D.57]
Emax [2]: > 50%

IC50 [1]: < 100 nM
SMILES: Cn1nc(C2CC2)c2c1NCC(C)(C)SC2c1ccc(Cl)cc1F (single isomer, unassigned) [M.4, 4-(4-chloro-2-fluorophenyl)-3-cyclopropyl-1,6,6-trimethyl-4,6,7,8-tetrahydro-1H-pyrazolo[3,4-e][1,4]thiazepine]
A549 Emax [2]: D (a compound with Emax<50%)

IC50 [1]: 100 to 1000 nM
SMILES: Cn1nc(-c2nccs2)c2c1NCC(C)(C)SC2c1ccc(Cl)cc1Cl (stereo not drawn) [D.17]
Emax [2]: < 50%

SMILES: Cc1cc(Cl)ccc1C1SCCNc2c1c(-c1ccccn1)nn2CC(F)(F)F (stereo not drawn) [D.104]
IC50 [1]: < 100 nM
Emax [2]: > 70%

SMILES: Cc1cc(Cl)ccc1C1SCC(C)Nc2c1c(-c1ccccn1)nn2C (single isomer, unassigned) [(4S,7S)-4-(4-chloro-2-methylphenyl)-1,7-dimethyl-3-(pyridin-]
A549 Emax [2]: D (a compound with Emax<50%)
